# Measured values reported in patent publication US4535075A, “Dithiolane derivative, process for producing the same and use thereof” (Nihon Nohyaku Co., Ltd., priority 1982, dated 1985).
# Read-outs that look alike come from different tables or passages of the source.
# Experiments:
# [1] = acute oral toxicity (LD50); settings: in vivo, male rat
# Protocol: The compounds represented by the general formula (I) are low in toxicity to mammals.
# Their acute oral toxicities to male rat expressed as LD50 values are shown below.
# For example, the LD50 values of the compound No. 1, No. 2, No. 3, No. 8 and No. 12 are 1,000-3,000 mg/kg, 3,000-5,000 mg/kg, more than 5,000 mg/kg, more than 5,000 mg/kg and 1,000-3,000 mg/kg, respectively.
# [2] = test system: fatty liver induced by carbon tetrachloride; test: Protective effect on fatty liver (carbon tetrachloride); format: in vivo, rats (SD strain); settings: percentage of mean value in carbon tetrachloride alone group, 100 mg/kg/day p.o. for 4 days, control 32.0
# Protocol: Carbon tetrachloride also induces fatty liver. Carbon tetrachloride is generally considered to damage microsome and thereby to inhibit protein synthesis and induce fatty liver.
# Carbon tetrachloride was subcutaneously administered to 5-6 week-old male rats (SD strain) for 4 days at the dose of 0.5 ml/kg/day.
# Simultaneously, the compound of the present invention was orally administered to the rats for 4 days at the dose of 30 mg/kg/day or 100 mg/kg/day.
# On the 5th day, the rats were sacrificed by exsanguination.
# The controlling (protective) effect was evaluated by determining the content of triglyceride in the liver.
# Triglyceride was determined colorimetrically by chromotropic acid method.
# Each value represented the percentage of mean value in carbon tetrachloride alone group.
# [3] = test system: liver damage induced by α-naphthyl isothiocyanate (ANIT); test: Protective effect on liver damage induced by ANIT (Method 1); format: in vivo, mice; settings: 2 x 250 mg/kg p.o., ANIT 35 mg/kg p.o., 24 h
# Source text: (§1) Protective effect on liver damage induced by α-naphthyl isothiocyanate (referred to as "ANIT", hereinafter).
# It is well known that experimental cholestasis is accomplished by administration with ANIT in mice and rats, and studied as a cholestasis model in human being.
# ANIT and CCl4 induce necrosis in the liver. ANIT causes it as small focci in perilobular parenchyna and CCl4 causes centrilobular parenchymal coagulation necrosis.
# From these information, the elevation of plasma GPT activity in these models are thought to have defferent characteristics.
# Test compounds, dissolved or suspended in olive oil or diethyleneglycol, were orally administered 2 times at intervals of 3 hrs to mice at the dose of 250 mg/kg. At 3 hrs after the second administration with test compounds, ANIT was administered orally at 35 mg/kg.
# Mice were sacrificed at 24 hrs after ANIT administration and blood samples were collected. The blood samples were centrifuged and plasma was obtained.
# Plasma GPT activity and alkaline phosphatase activity were determined by Reitman & Frankel's method and Bessey-Lowry's method, respectively. The activity was expressed with Karmen Unit and Bessey-Lowry Unit, respectively.
# [4] = test system: liver damage induced by carbon tetrachloride; test: Protective (Controlling) effect on liver damage induced by carbon tetrachloride; format: in vivo, mice (dd strain); settings: 250 mg/kg p.o., CCl4 0.05 ml/kg after 6 h, 24 h; for p-GPT: CCl4 alone >2,100; for Liver Damage Index: average of 5 mice, 0 Normal, 2 Slightly recognized, 4 Clearly observable damage, 6 Heavy damage, CCl4 alone 5.0
# Source text: Protective (Controlling) Effect on liver damage induced by carbon tetrachloride.
# Carbon tetrachloride administration induces centrilobular necrosis of the liver associated with loss of diphosphopyridine nucleotide, hepatic glycogen, coenzyme A and increase in neutral fat. Release of several enzymes from the hepatocytes, and increases of enzyme activities in the plasma are recognized as the result of the damage of the liver.
# A suitable means for evaluating the degree induced by carbon tetrachloride or the degree of protection afforded by drugs is to study the plasma glutamic-pyruvic transaminase (p-GPT) activity. […]
# After 6 hours, carbon tetrachloride was administered orally 0.05 ml/kg.
# Animals were killed 24 hours after carbon tetrachloride administration, and the liver was grossly observed.
# The plasma was obtained by centrifugation. Activity of p-GPT were determined by the method of Reitman and Frankel and expressed in Karmen units.
# Score for liver damage index was as follows:
# 1 Each figure indicated average of 5 mice.
# water solubility = format: physicochemical
# [5] = test system: liver damage induced by α-naphthyl isothiocyanate (ANIT); test: Protective effect on liver damage induced by ANIT (Method 2); format: in vivo, mice (dd strain); settings: 250 mg/kg p.o., ANIT 35 mg/kg p.o. after 6 h, 24 h
# Protocol: as §1
# Test compounds, dissolved or suspended in olive oil or diethyleneglycol, were orally administered at the dose of 250 mg/kg to the mice (Six or Seven-week-old male mice-dd strain).
# After 6 hours, ANIT dissolved in olive oil, was aministered orally at 35 mg/kg.
# Mice were sacrificed at 24 hours after ANIT administration and blood samples were collected. The blood samples were centrifuged and plasma was obtained.
# Plasma GPT activity and alkaline phosphatase activity were determined by Reitman & Frankel's method and Bessey-Lowry's method, respectively.
# The activity was expressed with Karmen Unit and Bessey-Lowry Unit, respectively.
# [6] = Table 3-1, control 3.3, ANIT alone 5.3
# [7] = Table 3-1, control 7.4, ANIT alone 324.0
# [8] = Table 3-3, control 2.9, ANIT alone >9.6
# [9] = Table 3-3, control 17.5, ANIT alone >460.2
# [10] = Table 3-4, control 3.7, ANIT alone 4.5
# [11] = Table 3-4, control 11.3, ANIT alone 300.3
SMILES,"Alkaline phosphatase activity [3, 6] [B-L.V.]","p-GPT [3, 7] [K.U.]",p-GPT [4] [Karmen units],Liver Damage Index [4],"Alkaline phosphatase activity [5, 8] [B-L.V.]","p-GPT [5, 9] [K.U.]",further results
COC(=O)C(C(=O)OC)=C1SC(O)C(O)S1 (stereo not drawn) [Compound 1],3.9,128.0,23,0.0,–,–,"LD50 [1]: 1000 to 3000 mg/kg; Triglyceride [2]: 57.5%; solubility (water solubility; 2% gum arabic aqueous solution, in 2% gum-arabia aqueous solution, read-out: solubility): 20000 µg/mL"
"CCOC(=O)C(C(=O)OCC)=C1SC(O)C(O)S1 (stereo not drawn) [Compound 2, diethyl 4,5-dihydroxy-1,3-dithiolan-2-ylidenemalonate]",4.4,28.0,15,0.0,–,–,LD50 [1]: 3000 to 5000 mg/kg; Triglyceride [2]: 46.6%
CCCOC(=O)C(C(=O)OCCC)=C1SC(O)C(O)S1 (stereo not drawn) [Compound 3],4.7,53.0,12,0.2,–,–,LD50 [1]: > 5000 mg/kg; Triglyceride [2]: 39.0%
CC(C)COC(=O)C(C(=O)OCC(C)C)=C1SC(O)C(O)S1 (stereo not drawn) [Compound 5],–,–,135,0.0,–,–,"Triglyceride [2]: 40.0%; Alkaline phosphatase activity ([3]; Table 3-2, ANIT alone 5.3): 3.5 B-L.V.; p-GPT ([3]; Table 3-2, ANIT alone >653.7): 134.8 K.U."
CCCCCOC(=O)C(C(=O)OCCCCC)=C1SC(O)C(O)S1 (stereo not drawn) [Compound 8],4.3,56.0,21,0.0,–,–,LD50 [1]: > 5000 mg/kg
"C=CCOC(=O)C(C(=O)OCC=C)=C1SC(O)C(O)S1 (stereo not drawn) [Compound 12, diallyl 4,5-dihydroxy-1,3-dithiolan-2-ylidenemalonate]",4.9,19.9,63,1.0,–,–,LD50 [1]: 1000 to 3000 mg/kg; Triglyceride [2]: 35.4%; solubility (water solubility; water): 2200 µg/mL
"CC(C)OC(=O)C(C(=O)OC(C)C)=C1SC(O)C(O)S1 (stereo not drawn) [Compound 23, diisopropyl 4,5-dihydroxy-1,3-dithiolan-2-ylidenemalonate]",4.0,76.0,22.5,0.0,–,–,"solubility (water solubility; in water at 20° C., read-out: water solubility): 2000 µg/mL"
CC(=O)C(C(=O)OC(C)(C)C)=C1SC(O)C(O)S1 (stereo not drawn) [Compound 41],–,–,105,0.6,6.0,132.7,–
CCCCCOC(=O)C(C(C)=O)=C1SC(O)C(O)S1 (stereo not drawn) [Compound 42],–,–,31,0.0,4.8,30.8,–
CC(=O)C(C(=O)OCCC(C)C)=C1SC(O)C(O)S1 (stereo not drawn) [Compound 43],–,–,36,0.2,5.9,298.9,–
CC(=O)C(C(=O)OC1CCCCC1)=C1SC(O)C(O)S1 (stereo not drawn) [Compound 44],–,–,73,0.4,5.1,140.2,–
C=CCOC(=O)C(C(C)=O)=C1SC(O)C(O)S1 (stereo not drawn) [Compound 45],–,–,13,0.0,5.6,136.9,–
C#CCOC(=O)C(C(C)=O)=C1SC(O)C(O)S1 (stereo not drawn) [Compound 46],–,–,16,0.0,5.3,29.9,–
COCCOC(=O)C(C(C)=O)=C1SC(O)C(O)S1 (stereo not drawn) [Compound 47],–,–,25,0.2,4.2,40.1,–
CC(=O)C(C(=O)OCc1ccccc1)=C1SC(O)C(O)S1 (stereo not drawn) [Compound 48],–,–,18,0.0,4.1,36.8,–
CCCC(=O)C(C(=O)OCC)=C1SC(O)C(O)S1 (stereo not drawn) [Compound 50],–,–,75,1.2,–,–,"Alkaline phosphatase activity [5, 10]: 3.0 B-L.V.; p-GPT [5, 11]: 18.5 K.U."
CCCCC(=O)C(C(=O)OCC)=C1SC(O)C(O)S1 (stereo not drawn) [Compound 52],–,–,25,0.4,–,–,"Alkaline phosphatase activity [5, 10]: 3.8 B-L.V.; p-GPT [5, 11]: 24.1 K.U."
